Data published in ChEMBL document CHEMBL3507680, “University of Dundee, Gates Library screen for HepG2 cell viability”.

Experiment: Human HepG2 cell viability assay in 384 well format
Format: toxicity, cell-based
Set-up: dose 125 nL, time 70.5 hour; cytotoxicity at 70.5 h: concentration not given beside the values
Settings: HepG2 cells, read-out: Inhibition

SMILES	cytotoxicity at 70.5 h [%]
CN(CCCc1nccn1C)c1nccc(-c2cc(C(=O)O)ccn2)n1	-3.33
COc1cc(COCC2CCN(Cc3cccnc3)CC2)cc(OC)c1	-1.2
CN(C)C(=O)[C@@H]1C[C@@H]2CCN(Cc3ccc4c(c3)OCO4)C[C@@H]2O1	1.53
CN(CC(=O)Nc1cc(-n2nnnc2C2CC2)ccc1F)C1CCC1	-8.29
Cn1ccnc1CN1CCN(CC(O)c2ccc(F)cc2)CC1 (centres undefined)	-3.86
CNC(=O)c1cn[nH]c1C1(C)CCCN(Cc2ccccc2OC)C1 (centres undefined)	3.23
c1cc(CCN2CCN(c3ccc4nncn4n3)CC2)ccn1	-11.9
Cn1cc(C(=O)Nc2cccc(F)c2)ccc1=O	0.823
c1ccc(-c2cc(CNCCN3CCCC3)c3nnnn3c2)cc1	-3.47
COc1ccc(C(=O)Nc2n[nH]c(C3CCCO3)n2)cc1 (centres undefined)	26.5
O=C(c1ccco1)N1CC[C@@H]2O[C@H](COCC3CCOCC3)CC[C@@H]21	4.34
CN(C)CCNC(=O)c1sccc1N(C)S(=O)(=O)c1ccc(Cl)cc1	-17.4
Cc1nc(C)c(CNC[C@@]2(COc3cccnc3)C[C@@H](O)[C@@H](O)C2)s1	-4.67
O=C1COC2(CCN(c3ccccn3)CC2)CN1	-19.6
COC(=O)c1cccc(S(=O)(=O)NC(=O)c2cccc(OC)c2OC)c1	-6.86
OCC1CCCN1c1cc(NCc2ccc(Cl)s2)ncn1 (centres undefined)	-2.35
CCOc1cc(C(=O)N(C)C)ccc1NC(=O)c1ccsc1	-9.1
COCCN(C)Cc1ccc(OC)c(OC(F)F)c1	-5.27
CC(C)NC(=O)C1CN(C(=O)CCc2ccccc2)CC12CCOCC2 (centres undefined)	44.3
Cc1ccc(-c2nc(CN3CCN(S(=O)(=O)N(C)C)CC3)cs2)o1	1.51
CCOC(=O)NCCNC(=O)c1cc2ccccc2nc1N1CCCC1	2.35
CCN(Cc1ccncc1)S(C)(=O)=O	27.1
CCOc1ccccc1C(=O)NCCC(O)c1ccoc1 (centres undefined)	9.07

SMILES	cytotoxicity at 70.5 h [%]
COc1cccc(CNc2cc(C)nc(-c3ccncc3)n2)c1O	-7.57
COCCN1CCN(C(C)c2nc(C3CC3)no2)CC1 (centres undefined)	17
CC(CO)(NC(=O)NCCc1ccc(Br)s1)C1CC1 (centres undefined)	-11
CN1CC(=O)N(c2cccc(F)c2)CC12CCN(CC1CCOCC1)C2 (centres undefined)	5.35
Cc1ccccc1CN(C)C(=O)CN1CCCCC1Cn1cncn1 (centres undefined)	-7.31
Cc1csc(CNC(=O)N(C)Cc2ccncc2)n1	-0.603
CN1CCC[C@H]1c1nc(-c2cncnc2N)no1	-7.81
COCCCN(C)[C@@H]1c2ccccc2C2(CCNCC2)[C@H]1O	-9.86
COc1ccc(CNCc2cn(C)nc2C)cc1	-2.32
Cc1nc(CN(C)C(=O)CNC(=O)c2ccc(C#N)cc2)cs1	-8.22
COCC1CN(CC2CC2)Cc2nn(CC3CC3)cc21 (centres undefined)	12.3
COc1c(C)cnc(CNC(=O)c2cc(C)nc3onc(C)c23)c1C	-5.39
CCc1oc(C(=O)N[C@@H]2c3ccccc3C[C@@H]2O)cc1CN1CCCC1	-6.15
Cn1cc(CCC(=O)N2CCCN(c3ncccc3C#N)CC2)cn1	35.5
O=C(NC1CCCCC1)[C@H]1CNC[C@@H](COc2cccnc2)C1	-3.95
CCn1nc(C)cc1NC(=O)CCn1nc(C)c(Br)c1C	10.2
COC(=O)c1ccc(F)c(Cn2nc(C)cc2C)c1	4.73
COc1ccc2c(c1)ncn2C[C@]1(O)CCCN2CCCC[C@@H]21	-13.3
COc1ccc(CC(=O)N2CC[C@@H]3NC(=O)CC[C@@H]32)cc1	3.62
COCc1nc(N(C)CCSc2ccccc2)c2cnn(C)c2n1	-5.78
CC(C)c1nn(C)c(N(C)C)c1CNCc1ccc(N(C)C)nc1	3.68
COc1ccccc1S(=O)(=O)N1CC(N(C)C)Cc2ccccc21 (centres undefined)	30.7
CCn1nc(C)c(NC(=O)CN(C)C(C)c2ccon2)c1C (centres undefined)	3.79

SMILES	cytotoxicity at 70.5 h [%]
COCCC(=O)N1CCCC(CCC(=O)NCc2cccc(OC)c2)C1 (centres undefined)	20.8
N#Cc1ccc(NCc2cc3n(n2)CCCN(C(=O)C2CCC2)C3)nc1	-8.13
NC(=O)C1CCN(C(=O)CCSCc2ccc(Cl)c(Cl)c2)CC1	-7.23
COCCc1ncc(-c2c(C#N)c(N)nc3c2CCc2[nH]ccc2-3)cn1	-3.18
O=C(NCc1ccccn1)Nc1cc(C(F)(F)F)c[nH]c1=O	9.08
COc1ccc(-c2nc(CNC3CCc4nc(C)nn4C3)no2)cc1 (centres undefined)	-3.37
Cc1nc(C)n(C2CCCN(C(=O)COCc3ccccc3)C2)n1 (centres undefined)	-0.931
NCC1CCCCN1C(=O)Cc1cccc(Br)c1 (centres undefined)	-4.6
Cc1nc(COc2nc(C(C)C)no2)cs1	-5.35
O=c1[nH]ccc2cc(-c3cc(O)cc(CCC4CCCCN4)c3)ccc12 (centres undefined)	-7.29
Cc1cc(C)c(CNC(=O)C(C)Oc2ccccc2F)c(=O)[nH]1 (centres undefined)	2.57
C[C@H]1C[C@H]2CN(C(=O)CCOc3ccccc3)CC[C@H]2O1	-1.04
COc1ccc2cc(-c3n[nH]cc3CN3CCSCC3)ccc2c1	0.45
CCS(=O)(=O)N1CCc2ncnc(C)c2CC1	-1.43
Cn1ccc(C(=O)NCC2(O)CCN(c3cnccn3)C2)n1 (centres undefined)	-1.53
CN(CCc1ccccc1)Cc1cnc(C2(C)CCCCO2)nc1 (centres undefined)	1.38
Cc1ccc(CN(C)C(=O)c2n[nH]c(N)c2-c2ccccc2)o1	28.7
Cn1ccc(C(=O)NC2CCC23CCN(Cc2ccc(F)cc2)CC3)c1 (centres undefined)	-0.822
CS(=O)(=O)CCC(=O)Nc1cc(F)ccc1OCC1CCCO1 (centres undefined)	12.1
CCCc1nnc(N2CC[C@@](O)(C3CCOCC3)[C@H](C)C2)s1	3.18
COc1ccc(C(C)N2CCC(NS(C)(=O)=O)CC2)cc1Cl (centres undefined)	10.5
Clc1cccc(OCCCN2CCOC(Cn3cncn3)C2)c1 (centres undefined)	1.4
Clc1ccc(N2CCC(OCC3CCCCO3)CC2)nc1 (centres undefined)	-1.36

SMILES	cytotoxicity at 70.5 h [%]
CC(=O)c1c(C)nn(CC(=O)N2CCCC2c2ccc(C(N)=O)s2)c1C (centres undefined)	-2.76
CCN(CC1CCOC1)C(=O)Nc1ccc(N2CCCCC2)nc1 (centres undefined)	-1.47
Cc1cc(C2CCCN(S(=O)(=O)c3cn[nH]c3)C2)ccn1 (centres undefined)	-7.27
Cc1nc(CCC(=O)N2Cc3cnc(-c4ccccc4)nc3C2)n[nH]1	-14.8
COc1ccc(CN2CC3(CCNCC3)CCC2=O)c(F)c1F	15.3
COC(=O)C(c1cc(F)ccc1F)N(C)C(=O)c1ccnc(C)n1 (centres undefined)	1.49
CN(C)CCn1c2c(ccc1=O)CC(NC(=O)c1cnccn1)CC2 (centres undefined)	-10.4
Cc1cc(NC(=O)CN2CCCC2c2c(C)nn(C)c2C)on1 (centres undefined)	-2.37
Cc1noc(CNc2ccc(OC(F)F)cc2OC(F)F)n1	-2.77
CC(=O)Nc1ccc(-c2ccccc2NC(=O)CN)cc1	28.6
NC(=O)CN(C(=O)Cc1ccc(C(F)(F)F)cc1)C1CCCC1	-7.24
Cc1c(C(=O)OCC2CC(=O)N(c3ccccc3)C2)cnn1C(C)C (centres undefined)	-0.00833
CO[C@H]1CNC[C@@H]1NC(=O)c1cc(C)nc2ccc(C)cc12	12.1
COc1ccc2c(=O)n(CC3CC3)ccc2c1OC	2.47
CC(C)Cc1nc(NC(=O)c2cccnc2)n[nH]1	-14.7
Cc1cnc(N2CCC3(C2)C(=O)N(C)CCN3Cc2cccnc2)nc1 (centres undefined)	-5.14
O=C(Cn1nnn(-c2cccs2)c1=O)N(CC1CCOC1)C1CC1 (centres undefined)	-9.03
CC(C)(C)c1nc(CNC(=O)N2CCc3ccccc3C2CO)no1 (centres undefined)	-2.31
CC(=O)N1CCCc2cc(Nc3nccn(C)c3=O)ccc21	-7.29
NCC1CCN(c2nc(C3CCCC3)nc3c2CCNCC3)C1 (centres undefined)	21.5
CCNC(=O)NC(=O)C(C)N(C)CCOc1ccccc1C (centres undefined)	-12.4
c1ccc2c(NC3CCc4ncnn4C3)ncnc2c1 (centres undefined)	-4.29
CN(C)C(=O)c1cc2ncc(C(=O)NC3CCCC3)cc2n1C	-0.145

SMILES	cytotoxicity at 70.5 h [%]
CC(C)Nc1cccc(CNC(=O)N2CCCC2)c1	-5.5
Cc1cnn(CCNCc2nc(CNC(=O)c3ccccc3)no2)c1	22.6
CN(C)Cc1cc(=O)n2c(n1)CN(Cc1ccco1)CCC2	-4.34
CC(C)NC(=O)N1CCOC2(CNC2)C1	-4.25
Cc1ccnn1CCN1CCCC2(CCC(=O)N(C3CCCC3)C2)C1 (centres undefined)	-21
Cn1nc(CNC(=O)c2ccc(Cl)cc2)c2c1CCOC2	3.98
CNc1nc(C2CCCCN2C(=O)COC)nc2c1CN(C)CC2 (centres undefined)	-9.52
CN1CCCCC1CCC(=O)NCCSc1cnn[nH]1 (centres undefined)	-2.59
CC1=C(C(N)=O)C(c2cn(C)nc2C)N2C(=O)CSC2=N1 (centres undefined)	-9.38
CCCNc1cc(C(=O)N2CCOCC2)nc(C)n1	-4.28
Cc1cc(C(=O)N2CCCC(c3nccn3C)C2)cc(S(N)(=O)=O)c1C (centres undefined)	-5.68
CNC(=O)CS(=O)(=O)C1CCN(S(=O)(=O)c2c(F)cccc2F)CC1	-7.9
CCCC(C)(C)NC(=O)c1cnc(C)s1	2.45
O=C([C@H]1COC[C@H]2CN(CC3CCCC3)C[C@H]21)N1CCOCC1	2.13
Cc1nn(C)cc1CN1CCN(CC2(c3ccccc3)CC2)CC1	-1.67
CCn1nc(C)c(C(C)NC(=O)c2cccc(NCC(=O)O)c2)c1C (centres undefined)	-9.45
Cc1cccc(C)c1OCCNC(=O)C(C)n1cncn1 (centres undefined)	-11.4
Cc1nc(Nc2nnc(C)s2)cc(C2CCCN2C2CCCC2)n1 (centres undefined)	-5.26
Cc1cc(C(=O)NCc2ccc(N3CCN(C)CC3)nc2)c(C)s1	-12.2
Cc1ccc(C(=O)N2CCC3(CCN(C(=O)c4cccnc4)C3)CC2)o1	-19.3
CC(=O)N[C@@H]1CN(C2CCN(c3cccc(C)c3C)CC2)C[C@H]1C(C)C	-5.59
Cc1ccn(-c2ccccc2NCc2ccccn2)n1	-8
